Where two headings read alike, the source gives them in different places.
Tests used:
Assay type in all cases: biochemical
PI3Kβ = molecular target: T1, PI3Kβ (Homo sapiens, UniProt P42338); assay: TR-FRET enzymatic activity assay, PI3Kβ
T1 construct: made in house

PI3Kδ = molecular target: T2, PI3Kδ (Homo sapiens, UniProt O00329); assay: TR-FRET enzymatic activity assay, PI3Kδ
T2 construct: made in house

PI3Kγ = molecular target: T3, PI3Kγ (Homo sapiens, UniProt P48736); assay: TR-FRET enzymatic activity assay, PI3Kγ; details: read-out: PI3Kγ IC50
T3 construct: made in house
T3 sequence (P48736 whole entry): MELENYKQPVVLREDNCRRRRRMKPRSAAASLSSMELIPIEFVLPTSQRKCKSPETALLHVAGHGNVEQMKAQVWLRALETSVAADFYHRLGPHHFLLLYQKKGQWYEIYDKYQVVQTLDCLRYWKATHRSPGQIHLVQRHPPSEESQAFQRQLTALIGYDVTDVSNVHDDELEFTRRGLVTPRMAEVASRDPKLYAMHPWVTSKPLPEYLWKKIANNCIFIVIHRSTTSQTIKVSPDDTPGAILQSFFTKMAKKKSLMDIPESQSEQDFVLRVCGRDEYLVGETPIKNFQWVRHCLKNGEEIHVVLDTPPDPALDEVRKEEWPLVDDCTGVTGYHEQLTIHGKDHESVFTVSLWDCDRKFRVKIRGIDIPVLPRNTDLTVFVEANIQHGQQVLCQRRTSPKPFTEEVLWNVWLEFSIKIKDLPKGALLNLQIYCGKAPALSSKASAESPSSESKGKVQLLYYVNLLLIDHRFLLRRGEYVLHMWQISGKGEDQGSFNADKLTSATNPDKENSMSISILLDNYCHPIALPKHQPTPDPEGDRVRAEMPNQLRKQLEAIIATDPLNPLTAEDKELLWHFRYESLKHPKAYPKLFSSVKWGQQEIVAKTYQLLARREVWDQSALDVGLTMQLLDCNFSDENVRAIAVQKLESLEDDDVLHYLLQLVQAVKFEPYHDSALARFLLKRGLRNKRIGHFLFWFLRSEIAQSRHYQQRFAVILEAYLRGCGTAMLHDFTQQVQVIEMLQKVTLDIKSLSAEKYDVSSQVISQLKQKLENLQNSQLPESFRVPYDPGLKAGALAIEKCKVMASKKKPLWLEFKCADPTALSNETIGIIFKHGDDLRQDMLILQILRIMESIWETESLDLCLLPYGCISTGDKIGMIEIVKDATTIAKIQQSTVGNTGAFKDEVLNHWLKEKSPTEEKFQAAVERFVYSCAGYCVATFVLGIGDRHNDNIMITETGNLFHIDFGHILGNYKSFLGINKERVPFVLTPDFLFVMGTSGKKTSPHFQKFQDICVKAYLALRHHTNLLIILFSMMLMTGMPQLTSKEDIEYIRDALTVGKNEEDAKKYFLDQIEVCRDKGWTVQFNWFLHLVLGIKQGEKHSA
Summary of the method: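 Each PI3K isoform is tested in an enzymatic format. Signal comes from time-resolved fluorescence energy transfer.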

[1] = Table 2, TR-FRET, 2x Km ATP, 30 minutes at 25° C.

T1 sequence (P42338 whole entry): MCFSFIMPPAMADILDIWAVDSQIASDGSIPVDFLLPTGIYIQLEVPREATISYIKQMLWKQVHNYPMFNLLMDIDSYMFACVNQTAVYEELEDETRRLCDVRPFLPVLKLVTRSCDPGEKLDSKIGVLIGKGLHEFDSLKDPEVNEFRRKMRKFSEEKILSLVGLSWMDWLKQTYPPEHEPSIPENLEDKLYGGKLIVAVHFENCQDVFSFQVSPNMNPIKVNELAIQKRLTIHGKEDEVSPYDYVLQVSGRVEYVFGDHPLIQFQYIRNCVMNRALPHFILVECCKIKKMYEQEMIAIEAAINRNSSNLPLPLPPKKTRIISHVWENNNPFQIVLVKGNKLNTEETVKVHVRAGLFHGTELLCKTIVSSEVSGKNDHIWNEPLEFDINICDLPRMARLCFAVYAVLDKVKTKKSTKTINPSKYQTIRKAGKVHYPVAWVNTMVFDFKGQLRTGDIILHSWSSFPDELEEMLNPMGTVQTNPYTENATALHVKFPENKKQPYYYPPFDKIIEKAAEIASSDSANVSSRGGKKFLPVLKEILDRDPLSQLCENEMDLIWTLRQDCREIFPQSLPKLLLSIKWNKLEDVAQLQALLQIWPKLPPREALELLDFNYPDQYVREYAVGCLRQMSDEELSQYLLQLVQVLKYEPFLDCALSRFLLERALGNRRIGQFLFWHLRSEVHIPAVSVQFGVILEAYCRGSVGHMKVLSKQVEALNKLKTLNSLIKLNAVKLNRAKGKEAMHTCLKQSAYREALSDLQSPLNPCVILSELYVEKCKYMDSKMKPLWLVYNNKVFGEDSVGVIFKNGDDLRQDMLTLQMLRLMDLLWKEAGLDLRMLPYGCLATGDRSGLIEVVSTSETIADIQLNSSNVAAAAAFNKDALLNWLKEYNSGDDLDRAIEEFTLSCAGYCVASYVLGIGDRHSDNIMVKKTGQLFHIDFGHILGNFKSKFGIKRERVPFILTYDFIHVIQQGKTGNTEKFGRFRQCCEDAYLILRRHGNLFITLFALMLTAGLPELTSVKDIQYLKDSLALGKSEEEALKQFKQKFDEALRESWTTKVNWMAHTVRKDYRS
T1 sequence (P27986 whole entry partner): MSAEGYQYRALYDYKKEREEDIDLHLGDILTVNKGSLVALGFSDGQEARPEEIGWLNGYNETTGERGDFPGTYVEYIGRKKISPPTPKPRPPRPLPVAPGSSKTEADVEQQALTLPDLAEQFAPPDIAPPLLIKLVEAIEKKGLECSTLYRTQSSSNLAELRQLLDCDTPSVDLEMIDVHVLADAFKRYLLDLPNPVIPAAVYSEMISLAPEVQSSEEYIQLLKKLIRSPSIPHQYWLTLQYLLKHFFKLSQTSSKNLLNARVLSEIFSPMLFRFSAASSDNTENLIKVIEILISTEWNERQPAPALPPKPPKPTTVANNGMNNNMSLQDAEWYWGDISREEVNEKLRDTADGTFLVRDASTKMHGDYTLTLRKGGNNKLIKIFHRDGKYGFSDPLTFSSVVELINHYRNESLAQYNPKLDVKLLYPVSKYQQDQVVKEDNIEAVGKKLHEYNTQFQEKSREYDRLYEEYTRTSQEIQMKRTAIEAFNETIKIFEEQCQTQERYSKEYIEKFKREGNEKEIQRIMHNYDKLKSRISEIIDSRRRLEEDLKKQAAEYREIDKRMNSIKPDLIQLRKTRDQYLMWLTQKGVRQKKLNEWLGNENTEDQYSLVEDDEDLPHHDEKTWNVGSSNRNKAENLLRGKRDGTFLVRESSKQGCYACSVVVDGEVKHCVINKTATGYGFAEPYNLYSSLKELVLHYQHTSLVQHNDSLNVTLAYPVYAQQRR
T2 sequence (O00329 whole entry): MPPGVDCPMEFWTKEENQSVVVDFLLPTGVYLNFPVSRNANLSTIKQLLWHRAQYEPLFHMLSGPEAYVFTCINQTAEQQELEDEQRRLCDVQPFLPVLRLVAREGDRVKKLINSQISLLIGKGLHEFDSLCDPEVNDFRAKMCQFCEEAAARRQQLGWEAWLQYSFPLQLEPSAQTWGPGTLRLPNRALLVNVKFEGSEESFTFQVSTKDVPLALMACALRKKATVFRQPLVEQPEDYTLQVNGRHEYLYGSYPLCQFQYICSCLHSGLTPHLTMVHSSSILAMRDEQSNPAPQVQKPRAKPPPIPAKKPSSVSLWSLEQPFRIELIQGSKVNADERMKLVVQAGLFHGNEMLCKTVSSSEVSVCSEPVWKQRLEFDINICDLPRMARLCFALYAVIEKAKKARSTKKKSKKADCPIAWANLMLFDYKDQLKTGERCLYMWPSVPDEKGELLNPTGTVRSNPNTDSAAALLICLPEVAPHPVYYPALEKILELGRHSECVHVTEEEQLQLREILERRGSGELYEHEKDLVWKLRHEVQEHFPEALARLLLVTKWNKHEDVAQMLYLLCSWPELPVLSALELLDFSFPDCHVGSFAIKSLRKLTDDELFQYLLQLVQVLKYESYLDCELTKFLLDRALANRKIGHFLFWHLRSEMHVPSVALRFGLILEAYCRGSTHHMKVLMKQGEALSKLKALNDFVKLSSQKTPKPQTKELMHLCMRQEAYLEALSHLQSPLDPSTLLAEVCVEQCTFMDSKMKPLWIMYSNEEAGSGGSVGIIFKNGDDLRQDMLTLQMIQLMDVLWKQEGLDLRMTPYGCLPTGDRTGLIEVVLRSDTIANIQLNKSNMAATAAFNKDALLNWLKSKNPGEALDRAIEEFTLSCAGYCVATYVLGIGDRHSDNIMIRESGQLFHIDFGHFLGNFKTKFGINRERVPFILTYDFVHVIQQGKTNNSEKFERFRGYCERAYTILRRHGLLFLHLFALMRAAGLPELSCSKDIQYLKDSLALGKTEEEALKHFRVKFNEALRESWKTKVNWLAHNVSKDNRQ
T2 sequence (P27986 whole entry partner): as the sequence (P27986 whole entry partner) above

Question: C[C@H](Nc1nc(N)nc(N)c1Cl)c1nc2ccccc2c(=O)n1-c1cc[nH]n1 [Compound 275, (S)-2-(1-((2,6-diamino-5-chloropyrimidin-4-yl)amino)ethyl)-3-(1H-pyrazol-3-yl)quinazolin-4(3H)-one] was tested. Which IC50 (PI3Kβ; Table 2a, same assay) did it give?
Answer: 46 nM

Question: What about the IC50 (PI3Kδ; Table 2a, same assay) of the same compound?
Answer: 40 nM

Question: What about the IC50 (PI3Kγ; Table 2a, same assay) of the same compound?
Answer: > 10000 nM

Question: CC[C@H](Nc1nc(N)nc(N)c1C#N)c1nc2c(C)ccc(F)c2c(=O)n1-c1cc[nH]n1 [Compound 36, (S)-2,4-diamino-6-((1-(5-fluoro-8-methyl-4-oxo-3-(1H-pyrazol-3-yl)-3,4-dihydroquinazolin-2-yl)propyl)amino)pyrimidine-5-carbonitrile] was tested. Which IC50 (PI3Kβ; [1]) did it give?
Answer: 2 nM

Question: And the IC50 (PI3Kδ; [1])?
Answer: 5 nM

Question: What about the IC50 (PI3Kγ; [1]) of the same compound?
Answer: 4100 nM

Question: How did the IC50 (PI3Kβ; Table 2a, same assay) turn out when C[C@H](Nc1ncnc2scc(C#N)c12)c1nc2cccc(Cl)c2c(=O)n1-c1cc[nH]n1 [Compound 202, (S)-4-((1-(5-chloro-4-oxo-3-(1H-pyrazol-3-yl)-3,4-dihydroquinazolin-2-yl)ethyl)amino)thieno[2,3-d]pyrimidine-5-carbonitrile] was run?
Answer: 62 nM

Question: And the IC50 (PI3Kδ; Table 2a, same assay)?
Answer: 0.5 nM

Question: What about the IC50 (PI3Kγ; Table 2a, same assay) of the same compound?
Answer: 14 nM

Question: Cc1n[nH]cc1-n1c([C@H](C)Nc2nc(N)nc(N)c2C#N)nc2cccc(Cl)c2c1=O [Compound 216, (S)-2,4-diamino-6-((1-(5-chloro-3-(3-methyl-1H-pyrazol-4-yl)-4-oxo-3,4-dihydroquinazolin-2-yl)ethyl)amino)pyrimidine-5-carbonitrile] was tested. Which IC50 (PI3Kβ; Table 2a, same assay) did it give?
Answer: 3 nM

Question: And the IC50 (PI3Kδ; Table 2a, same assay)?
Answer: 0.4 nM

Question: What about the IC50 (PI3Kγ; Table 2a, same assay) of the same compound?
Answer: 40 nM

Question: How did the IC50 (PI3Kβ; [1]) turn out when CC[C@H](Nc1ncnc2scnc12)c1nc2cccc(C#N)c2c(=O)n1-c1cn[nH]c1 [Compound 103, (S)-4-oxo-3-(1H-pyrazol-4-yl)-2-(1-(thiazolo[5,4-d]pyrimidin-7-ylamino)propyl)-3,4-dihydroquinazoline-5-carbonitrile] was run?
Answer: 620 nM

Question: And the IC50 (PI3Kδ; [1])?
Answer: 100 nM

Question: And the IC50 (PI3Kγ; [1])?
Answer: 8700 nM

Question: O=c1c2c(Cl)cccc2nc([C@H](CO)Nc2ncnc3scnc23)n1-c1cc[nH]n1 [Compound 51, (R)-5-chloro-2-(2-hydroxy-1-(thiazolo[5,4-d]pyrimidin-7-ylamino)ethyl)-3-(1H-pyrazol-3-yl)quinazolin-4(3H)-one] was tested. Which IC50 (PI3Kβ; [1]) did it give?
Answer: 9 nM

Question: And the IC50 (PI3Kδ; [1])?
Answer: 2 nM

Question: And the IC50 (PI3Kγ)?
Answer: > 10000 nM

Question: With C[C@H](Nc1nc(N)nc(N)c1Cl)c1nc2cc(F)cc(F)c2c(=O)n1-c1cc[nH]n1 [Compound 236, (S)-2-(1-((2,6-diamino-5-chloropyrimidin-4-yl)amino)ethyl)-5,7-difluoro-3-(1H-pyrazol-3-yl)quinazolin-4(3H)-one] as the compound, how does the IC50 (PI3Kβ; Table 2a, same assay) read?
Answer: 120 nM

Question: And the IC50 (PI3Kδ; Table 2a, same assay)?
Answer: 120 nM

Question: What about the IC50 (PI3Kγ; Table 2a, same assay) of the same compound?
Answer: > 10000 nM

Question: CC[C@H](Nc1ncnc2ccc(Cl)nc12)c1nc2c(Cl)ccc(Cl)c2c(=O)n1-c1cn[nH]c1 [Compound 42, (S)-5,8-dichloro-2-(1-((6-chloropyrido[3,2-d]pyrimidin-4-yl)amino)propyl)-3-(1H-pyrazol-4-yl)quinazolin-4(3H)-one] was tested. Which IC50 (PI3Kβ; [1]) did it give?
Answer: 77 nM

Question: What about the IC50 (PI3Kδ; [1]) of the same compound?
Answer: 10 nM

Question: And the IC50 (PI3Kγ; [1])?
Answer: 460 nM

Question: For C[C@H](Nc1nc(N)nc(N)c1C#N)c1nc2cc(F)cc(Cl)c2c(=O)n1-c1cc[nH]n1 [Compound 237, (S)-2,4-diamino-6-((1-(5-chloro-7-fluoro-4-oxo-3-(1H-pyrazol-3-yl)-3,4-dihydroquinazolin-2-yl)ethyl)amino)pyrimidine-5-carbonitrile], which IC50 (PI3Kβ; Table 2a, same assay) is on record?
Answer: 2 nM

Question: What about the IC50 (PI3Kδ; Table 2a, same assay) of the same compound?
Answer: 2 nM

Question: What about the IC50 (PI3Kγ; Table 2a, same assay) of the same compound?
Answer: 1400 nM

Question: Which IC50 (PI3Kβ; Table 2a, same assay) does the source give for C[C@H](Nc1nc(N)nc(N)c1C#N)c1nc2c(C(F)(F)F)cccc2c(=O)n1-c1cc[nH]n1 [Compound 135, (S)-2,4-diamino-6-((1-(4-oxo-3-(1H-pyrazol-3-yl)-8-(trifluoromethyl)-3,4-dihydroquinazolin-2-yl)ethyl)amino)pyrimidine-5-carbonitrile] here?
Answer: 2 nM

Question: What about the IC50 (PI3Kδ; Table 2a, same assay) of the same compound?
Answer: 1 nM

Question: What about the IC50 (PI3Kγ; Table 2a, same assay) of the same compound?
Answer: 340 nM

Question: Which IC50 (PI3Kβ; [1]) does the source give for CC[C@H](Nc1nc(N)nc(N)c1C#N)c1nc2cccc(Br)c2c(=O)n1-c1cn[nH]c1 [Compound 99, (S)-2,4-diamino-6-((1-(5-bromo-4-oxo-3-(1H-pyrazol-4-yl)-3,4-dihydroquinazolin-2-yl)propyl)amino)pyrimidine-5-carbonitrile] here?
Answer: 0.8 nM

Question: And the IC50 (PI3Kδ; [1])?
Answer: 1 nM

Question: What about the IC50 (PI3Kγ; [1]) of the same compound?
Answer: 93 nM

Question: What does the source list for CC[C@H](Nc1ncnc2[nH]cnc12)c1nc2c(Cl)ccc(Cl)c2c(=O)n1-c1cc[nH]n1 [Compound 52, (S)-2-(1-((9H-purin-6-yl)amino)propyl)-5,8-dichloro-3-(1H-pyrazol-3-yl)quinazolin-4(3H)-one]?
Answer: IC50 (PI3Kβ; [1]): 70 nM; IC50 (PI3Kδ; [1]): 6 nM; IC50 (PI3Kγ): > 10000 nM

Question: With Cc1cc(-n2c([C@H](C)Nc3ncnc4scnc34)nc3cccc(Cl)c3c2=O)n[nH]1 [Compound 8, (S)-5-chloro-3-(5-methyl-1H-pyrazol-3-yl)-2-(1-(thiazolo[5,4-d]pyrimidin-7-ylamino)ethyl)quinazolin-4(3H)-one] as the compound, how does the IC50 (PI3Kβ; [1]) read?
Answer: 41 nM

Question: And the IC50 (PI3Kδ; [1])?
Answer: 11 nM

Question: And the IC50 (PI3Kγ)?
Answer: > 10000 nM

Question: What does the source list for Cc1nc(N)nc(N[C@@H](c2ccccc2)c2nc3cccc(Cl)c3c(=O)n2-c2cc[nH]n2)c1C#N [Compound 110, (S)-2-amino-4-(((5-chloro-4-oxo-3-(1H-pyrazol-3-yl)-3,4-dihydroquinazolin-2-yl)(phenyl)methyl)amino)-6-methylpyrimidine-5-carbonitrile]?
Answer: IC50 (PI3Kβ; [1]): 4 nM; IC50 (PI3Kδ; [1]): 1 nM; IC50 (PI3Kγ; [1]): 410 nM

Question: With CC[C@H](NC(=O)c1cnn2cccnc12)c1nc2c(Cl)ccc(Cl)c2c(=O)n1-c1cc[nH]n1 [Compound 120, (S)—N-(1-(5,8-dichloro-4-oxo-3-(1H-pyrazol-3-yl)-3,4-dihydroquinazolin-2-yl)propyl)pyrazolo[1,5-a]pyrimidine-3-carboxamide] as the compound, how does the IC50 (PI3Kβ; [1]) read?
Answer: 530 nM

Question: And the IC50 (PI3Kδ; [1])?
Answer: 720 nM

Question: What about the IC50 (PI3Kγ) of the same compound?
Answer: > 10000 nM

Question: CC[C@H](Nc1ncnc2scnc12)c1nc2cccc(Cl)c2c(=O)n1-c1n[nH]cc1Br [Compound 77, (S)-3-(4-bromo-1H-pyrazol-3-yl)-5-chloro-2-(1-(thiazolo[5,4-d]pyrimidin-7-ylamino)propyl)quinazolin-4(3H)-one] was tested. Which IC50 (PI3Kβ; [1]) did it give?
Answer: 140 nM

Question: What about the IC50 (PI3Kδ; [1]) of the same compound?
Answer: 5 nM

Question: What about the IC50 (PI3Kγ; [1]) of the same compound?
Answer: 1700 nM

Question: For C[C@H](Nc1nc(N)nc(C(F)F)c1C#N)c1nc2cccc(C(F)F)c2c(=O)n1-c1cn[nH]c1 [Compound 179, (S)-2-amino-4-(difluoromethyl)-6-((1-(5-(difluoromethyl)-4-oxo-3-(1H-pyrazol-4-yl)-3,4-dihydroquinazolin-2-yl)ethyl)amino)pyrimidine-5-carbonitrile], which IC50 (PI3Kβ; Table 2a, same assay) is on record?
Answer: 78 nM

Question: What about the IC50 (PI3Kδ; Table 2a, same assay) of the same compound?
Answer: 27 nM

Question: What about the IC50 (PI3Kγ; Table 2a, same assay) of the same compound?
Answer: 950 nM

Question: Which results are given for C[C@H](Nc1nc(N)nc(N)c1Cl)c1nc2c(C(F)(F)F)cccc2c(=O)n1-c1cc[nH]n1 [Compound 136, (S)-2-(1-((2,6-diamino-5-chloropyrimidin-4-yl)amino)ethyl)-3-(1H-pyrazol-3-yl)-8-(trifluoromethyl)quinazolin-4(3H)-one]?
Answer: IC50 (PI3Kβ; Table 2a, same assay): 9 nM; IC50 (PI3Kδ; Table 2a, same assay): 11 nM; IC50 (PI3Kγ; Table 2a, same assay): 5500 nM

Question: For N#Cc1c(N)nc(N)nc1N[C@H](c1nc2c(Cl)cc(F)cc2c(=O)n1-c1c[nH]cn1)C1CC1 [Compound 281, (S)-2,4-diamino-6-(((8-chloro-6-fluoro-3-(1H-imidazol-4-yl)-4-oxo-3,4-dihydroquinazolin-2-yl)(cyclopropyl)methyl)amino)pyrimidine-5-carbonitrile], which IC50 (PI3Kβ; Table 2a, same assay) is on record?
Answer: 2 nM

Question: And the IC50 (PI3Kδ; Table 2a, same assay)?
Answer: 1 nM

Question: What about the IC50 (PI3Kγ; Table 2a, same assay) of the same compound?
Answer: 620 nM

Question: CC[C@H](Nc1ncnc2scnc12)c1nc2c(C#N)cccc2c(=O)n1-c1cc[nH]n1 [Compound 74, (S)-4-oxo-3-(1H-pyrazol-3-yl)-2-(1-(thiazolo[5,4-d]pyrimidin-7-ylamino)propyl)-3,4-dihydroquinazoline-8-carbonitrile] was tested. Which IC50 (PI3Kβ; [1]) did it give?
Answer: 20 nM

Question: What about the IC50 (PI3Kδ; [1]) of the same compound?
Answer: 5 nM

Question: What about the IC50 (PI3Kγ) of the same compound?
Answer: > 10000 nM

Question: What does the source list for Nc1ncnc(N[C@H](c2nc3cccc(Cl)c3c(=O)n2-c2cc[nH]n2)C2CC2)c1Cl [Compound 165, (S)-2-(((6-amino-5-chloropyrimidin-4-yl)amino)(cyclopropyl)methyl)-5-chloro-3-(1H-pyrazol-3-yl)quinazolin-4(3H)-one]?
Answer: IC50 (PI3Kβ; Table 2a, same assay): 6 nM; IC50 (PI3Kδ; Table 2a, same assay): 1 nM; IC50 (PI3Kγ; Table 2a, same assay): 4200 nM

Question: What does the source list for CC[C@H](Nc1ncnc2ccc(Cl)nc12)c1nc2c(Cl)ccc(Cl)c2c(=O)n1-c1cc[nH]n1 [Compound 45, (S)-5,8-dichloro-2-(1-((6-chloropyrido[3,2-d]pyrimidin-4-yl)amino)propyl)-3-(1H-pyrazol-3-yl)quinazolin-4(3H)-one]?
Answer: IC50 (PI3Kβ; [1]): 15 nM; IC50 (PI3Kδ; [1]): 4 nM; IC50 (PI3Kγ): > 10000 nM

Question: Which results are given for C[C@H](Nc1nc(N)nc(N)c1C#N)c1nc2cccc(C(F)F)c2c(=O)n1-c1cn[nH]c1 [Compound 212, (S)-2,4-diamino-6-((1-(5-(difluoromethyl)-4-oxo-3-(1H-pyrazol-4-yl)-3,4-dihydroquinazolin-2-yl)ethyl)amino)pyrimidine-5-carbonitrile]?
Answer: IC50 (PI3Kβ; Table 2a, same assay): 1 nM; IC50 (PI3Kδ; Table 2a, same assay): 0.7 nM; IC50 (PI3Kγ; Table 2a, same assay): 34 nM

Question: Which results are given for CC[C@H](Nc1ncnc2scnc12)c1nc2cccc(C#N)c2c(=O)n1-c1cc[nH]n1 [Compound 73, (S)-4-oxo-3-(1H-pyrazol-3-yl)-2-(1-(thiazolo[5,4-d]pyrimidin-7-ylamino)propyl)-3,4-dihydroquinazoline-5-carbonitrile]?
Answer: IC50 (PI3Kβ; [1]): 95 nM; IC50 (PI3Kδ; [1]): 18 nM; IC50 (PI3Kγ): > 10000 nM

Question: How did the IC50 (PI3Kβ; [1]) turn out when N#Cc1c(N)nc(N)nc1N[C@H](c1nc2c(Cl)cccc2c(=O)n1-c1cn[nH]c1)C1CC1 [Compound 29, (S)-2,4-diamino-6-(((8-chloro-4-oxo-3-(1H-pyrazol-4-yl)-3,4-dihydroquinazolin-2-yl)(cyclopropyl)methyl)amino)pyrimidine-5-carbonitrile] was run?
Answer: 3 nM

Question: And the IC50 (PI3Kδ; [1])?
Answer: 6 nM

Question: What about the IC50 (PI3Kγ; [1]) of the same compound?
Answer: 440 nM

Question: Which results are given for C[C@H](Nc1nc(N)nc2[nH]ncc12)c1nc2cccc(Cl)c2c(=O)n1-c1cc[nH]n1 [Compound 90, (S)-2-(1-((6-amino-1H-pyrazolo[3,4-d]pyrimidin-4-yl)amino)ethyl)-5-chloro-3-(1H-pyrazol-3-yl)quinazolin-4(3H)-one]?
Answer: IC50 (PI3Kβ; [1]): 1800 nM; IC50 (PI3Kδ; [1]): 830 nM; IC50 (PI3Kγ): > 10000 nM

— patent publication US10308639B2, “Phosphatidylinositol 3-kinase inhibitors” (Gilead Sciences, Inc., priority 2014, dated 2019)
